Measurements published in article PMC6703856 (Biochemistry, 2019).
Read-outs that look alike come from different tables or passages of the source.

Columns and labels:
[1] = test system: NBD-labelled MBP (cysteine mutation at Ser337); format: binding, Escherichia coli
MBP I329W mutant = MBP I329W mutant (Escherichia coli, UniProt P0AEX9, I355W); assay: Maltose fluorescence titration, peak wavelength of tryptophan fluorescence; format: binding; conditions: I329W mutant relative to wild-type protein

Compound: bovine serum albumin [BSA]
- increase in maltose Kd;app ([1]; 100 g/L BSA, NBD fluorescence): 16 fold

Compound: OC[C@H]1O[C@H](O[C@H]2[C@H](O)[C@@H](O)C(O)O[C@@H]2CO)[C@H](O)[C@@H](O)[C@@H]1O (mixture of isomers) [maltose]
- weakening of maltose affinity by the NBD dye ([1]; monitored by NBD fluorescence intensity): 24 fold
- weakening of maltose affinity by the NBD dye ([1]; monitored by peak wavelength of tryptophan fluorescence): 5 fold
- increase in maltose binding affinity (MBP I329W mutant): 100 fold
